According to paper PMC11645267, “Novel pharmacologic inhibition of lysine-specific demethylase 1 as a potential therapeutic for glioblastoma” (Cancer Gene Therapy, 2024):

Key:
[1] = test system: LN229; assay: Western blot of global histone modifications; assay type: cell-based; conditions: LN229, 5 μM, 96 h
Description: The effects of S2172 on global histone modifications in GSCs were examined using western blot analysis. GSC cells were treated with 5 μM of S2172 since […] of the cells are still viable at this concentration (Fig. 2, Supplementary Fig. S1E). […] Treatment of GSCs with S2172 increased the overall levels of H3K4me2 as well as H3K9me2. However, these changes were not statistically significant (Fig. 2A, B). […]
(§1) instructions. For GSC cells, the CellTiter-Glo 3D Viability Assay (Promega, Madison, WI, USA) was used to measure the living cells. All proliferation experiments were repeated […]
The density of bands was quantified using ImageJ software (https://imagej.nih.gov/ij/). […]
When mice were scanned with MRI, mice were anesthetized with isoflurane (3% in air) and placed in MRS 3017 Benchtop MRI Systems (MR Solutions, Guildford, UK). Using MRI images, tumor volumes were obtained by compiling tumor areas from all slices that contained tumors and calculated by ImageJ software (https://imagej.nih.gov/ij/) {Towner, […]
A. Western blot analysis (left panel) of H3K4me1, H3K4me2, H3K4me3, and H3K9me2 after treatment with either DMSO or S2172 5μM for 96 h in LN229. […] Quantification of signal intensity of western blot (right panel). […] Ratio was calculated by dividing cleaved band intensity by total protein band intensity. […]

[2] = test system: F3; assay: Stemness marker expression (qPCR, western blot); assay type: cell-based; conditions: F3, 5 μM, 96 h
Text: Super-enhancers consist of enhancer clusters with abundant binding of transcription factors and are highly enriched with H3K27ac marks. The H3K4me2 increased regions included the MYC locus and H3K4me2 de novo regions comprised Nestin and SOX2 loci (Fig. 2F, Supplementary Fig. S5A). These regions were also identified as super-enhancers in GSCs using data from our previous study (Fig. 2F). Compared to the large increase in H3K4me2 in these regions, changes in H3K4me3 were subtle after S2172 treatment (only 2582 regions were acquired modification) (Fig. 2C). Increasing the me2/me3 ratio at H3K4 is associated with reduced gene expression. […]
as §1
A. Left panel: Western blot analysis of H3K4me1, H3K4me2, H3K4me3, and H3K9me2 after treatment with either DMSO or S2172 5μM for 96 h in normal neural stem cell F3 . […] Right panel: Quantification of signal intensities of the Western blot. […]
C. […] Right panel: Quantification of band signal intensities from the Western blot.
Error bars indicate the SD; n = 3. […] The ratio was calculated by dividing the intensity of the cleaved PARP band by the full-length PARP band. […]

NC1CCC(NC2CC2c2cc(F)cc(F)c2OCc2ccccc2)CC1 (centres unmarked) [S2172] was tested, and the “level of H3K4me2” value [1] was “significantly increased” and the “expression levels of stemness markers” value [2] was “not significantly affected”.
